Measurements taken from patent US20240376165A1, “COMPOSITION COMPRISING VGLL1 PEPTIDE FOR TREATMENT OF CANCER” (ONECUREGEN CO., LTD., priority 2020, published 2024).
d = 2'-deoxy (DNA); r = 2'-OH (RNA)

What was measured:
[1] = test system: stomach cancer cell line NUGC3; test: Cancer cell proliferation with peptide variants, real-time cell analysis (Incucyte); format: cell-based, human; settings: NUGC3, 60 μM peptide, FIG. 11
Protocol: The stomach cancer cell line NUGC3 was cultured in a 96-well plate, and the next day, the cells were treated with 60 μM peptide. The cell proliferation was analyzed using a real-time cell analysis system (product name: Incucyte).
FIG. 11A is a graph of real-time cell proliferation, and FIG. 11B is a graph showing cell proliferation after 4 days based on 100% control peptide.

[2] = test system: stomach cancer cell line NUGC3; test: Cell proliferation after siRNA, Sulforhodamine B staining; format: cell-based, human; settings: NUGC3, 20 nM siRNA, 48 hours, FIG. 2B
Protocol: In addition, in order to confirm the cell proliferation ability of MMP9, the stomach cancer cell line NUGC3 was cultured in a 96-well plate. The next day, cells were treated with the mixture of Lipofectamine 2000 and 20 nM siSC or siMMP9. After 48 hours, cells were fixed using 1% formalin solution. Thereafter, the cells were stained with 0.4% Sulforhodamine B solution for 1 hour, washed with acetic acid, and dried. Then, the cells were dissolved in a 10 mM Tris solution, and absorbance was measured at 540 nm using an ELISA plate reader (FIG. 2B).

[3] = test system: stomach cancer cell line NUGC3; test: Matrigel cell invasion after siRNA; format: cell-based, human; settings: NUGC3, siRNA knockdown cells, Matrigel insert, 48 hours, FIG. 2C
Protocol: (§1) Next, in order to confirm the cell invasive ability of MMP9, a cell culture insert was fixed in a 24-well plate. Matrigel was diluted 20-fold, and 100 μl of diluent was added. The reaction was carried out at 37° C. for 1 hour or longer. 700 μl of medium containing 10% serum was added to a 24-well plate under the insert. MMP knockdown cells with the above siRNA were added to the insert according to 300 μl of serum-free medium to a concentration of 5×10^5. After 48 hours, the insert was removed and cells were fixed in 10% formalin solution. Cells remaining inside the insert were removed with a cotton swab and washed with water. Cells were stained with 0.4% Sulforhodamine B solution for 1 hour, washed with acetic acid, and dried. Then, a photograph was taken with an optical microscope, the membrane on the insert was cut, and Sulforhodamine B in stained cells was dissolved in 10 mM Tris solution, and absorbance was measured at 540 nm using an ELISA plate reader (FIG. 2C).

[4] = test system: MMP9; test: MMP9 knockdown by siRNA, RT-PCR; format: cell-based, human; settings: NUGC3, 20 nM siRNA, 48 hours, FIG. 2A
Protocol: Specifically, the stomach cancer cells line NUGC3 was cultured in a 6-well plate overnight, and then treated with the mixture of Lipofectamine 2000 and 20 nM siSC or siMMP9 (SEQ ID NO: 22) and. After 48 hours, mRNA was extracted from the cells and complementary DNA was synthesized, followed by RT-PCR using the MMP9 primer (FIG. 2A).

[5] = test system: stomach cancer cell line NUGC3; test: Cancer cell proliferation, real-time cell analysis (IncuCyte Zoom); format: cell-based, human; settings: FIG. 9
Protocol: Specifically, the stomach cancer cell line NUGC3 was cultured in a 96-well plate. The next day, the cells were treated with the peptide fragment. The cell proliferation was analyzed using a real-time cell analysis system (product name: IncuCyte Zoom).

[6] = test system: stomach cancer cell line NUGC3; test: Cancer cell invasion with peptide fragment; format: cell-based, human; settings: NUGC3, insert, 48 hours, FIG. 10
Protocol: as §1
A method similar to Example 1-2 was performed for stomach cancer cell invasion experiment by the VGLL1 peptide fragment.
The stomach cancer cell line NUGC3 was placed in an insert together with the peptide fragment. After 48 hours of cell culture, the insert was fixed in a 10% formalin solution, and the downwardly migrated cells were confirmed by staining with 0.4% Sulforhodamine B solution.

[7] = test system: MMP9; test: MMP9 protein expression induced by TGF-β, western blot, peptide treatment; format: cell-based, human; settings: NUGC3, TGF-β and peptide for 18 hours, FIG. 8
Protocol: To evaluate whether the peptide fragment that interferes the binding between VGLL1 and TEAD4 can inhibit MMP9 expression in human stomach cancer cells, peptides shown in Table 6 were prepared to examine their effects on MMP9 expression.
Experiments were performed using the synthetic peptide fragments. The stomach cancer NUGC3 cells were cultured in a 6-well plate. The next day, cells were cultured in serum-free cell culture for 24 hours. TGF-β and a control peptide fragment (SEQ ID NO: 12), a peptide fragment containing serine at position 84 of VGLL1 (SEQ ID NO: 27), and a mutant peptide fragment containing alanine at position 84 of VGLL1 (SEQ ID NO: 28) were treated into cells for 18 hours. Proteins were extracted from the cells using a Ripa buffer and were separated by electrophoresis. Thereafter, protein expression of genes was confirmed by using an antibody on the polyvinylidene fluoride membrane.

[8] = test system: MMP9; test: MMP9 expression by TGF-β treatment, RT-PCR; format: cell-based, human; settings: NUGC3, RT-PCR, after 6 hours of TGF-β treatment, FIG. 1
Protocol: In order to confirm the expression change of MMP9 according to TGF-β treatment in stomach cancer cell lines, the human stomach cancer cell line NUGC3 was treated with TGF-β at each time period, then mRNA was extracted from the cells, and complementary DNA was synthesized. Then RT-PCR was performed using Matrix metalloproteinase 9 (MMP9) primers (Table 4).

[9] = test system: MMP9 promoter; test: MMP9 promoter luciferase activity after TGF-β treatment; format: cell-based, human; settings: NUGC3, 20 nM siRNA, TGF-β 18 hours, compared to control (siSC), FIG. 3
Protocol: In order to determine whether VGLL1 and TEAD4 were involved in MMP9 promoter activity in NUGC3 human stomach cancer cell line, the MMP9 promoter luciferase activity was investigated after TGF-β treatment.
Specifically, the stomach cancer cell NUGC3 was cultured in a 48-well plate at a concentration of 2× 10^4 cells/well. The next day, the MMP9 gene-inserted pGL4.17-luciferase vector was transfected into cells using Lipofectamine 2000. After 24 hours, 20 nM siSC (SEQ ID NO: 23: 5′-CCUACGCCACCAAUUUCGUdTdT-3′) siVGLL1 (SEQ ID NO 24: 5′-[…]dTdT-3′), siTEAD4 (SEQ ID NO 25: 5′-GACACUACUCUUACCGCAUdTdT-3′), and siYAP (SEQ ID NO 26: 5′-CCACCA AGCUAGAUAAAGAAAdTdT-3′) were mixed with Lipofectamine 2000, and the cells were treated with the mixture. The next day, the cells were treated with TGF-β for 18 hours. Thereafter, the cells were disrupted using a passive lysis buffer. Then, after centrifuging cells, a supernatant was obtained. […] At this time, the degree of luminescence of the cells was checked using Victor X Light.

[10] = test system: MMP9; test: MMP9 mRNA expression after TGF-β treatment, RT-PCR; format: cell-based, human; settings: NUGC3, 20 nM siRNA, TGF-β 18 hours, compared to control (siSC), FIG. 4
Protocol: In order to determine whether VGLL1 and TEAD4 were involved in MMP9 mRNA expression in NUGC3 human stomach cancer cells, MMP9 mRNA expression was examined by RT-PCR after TGF-β treatment.
Specifically, the stomach cancer cell line NUGC3 was cultured in a 6-well plate. The next day, 20 nM siSC, siVGLL1, siTEAD4, and siYAP were mixed with Lipofectamine 2000, and the cell line was treated with the mixture. The next day, after treatment with TGF-β for 18 hours, mRNA was extracted from the cells and complementary DNA was synthesized, followed by RT-PCR.

[11] = target: T1, GFP-TEAD4, expressed from the GFP-TEAD4 vector (UniProt Q15561 1-434); test: co-immunoprecipitation with HA antibody agarose, western blot with GFP antibody
T1 construct: Detected with GFP antibody in the HA immunoprecipitate; also called transcription factor TEAD4; not shown: GFP tag
T1 sequence (Q15561 whole entry): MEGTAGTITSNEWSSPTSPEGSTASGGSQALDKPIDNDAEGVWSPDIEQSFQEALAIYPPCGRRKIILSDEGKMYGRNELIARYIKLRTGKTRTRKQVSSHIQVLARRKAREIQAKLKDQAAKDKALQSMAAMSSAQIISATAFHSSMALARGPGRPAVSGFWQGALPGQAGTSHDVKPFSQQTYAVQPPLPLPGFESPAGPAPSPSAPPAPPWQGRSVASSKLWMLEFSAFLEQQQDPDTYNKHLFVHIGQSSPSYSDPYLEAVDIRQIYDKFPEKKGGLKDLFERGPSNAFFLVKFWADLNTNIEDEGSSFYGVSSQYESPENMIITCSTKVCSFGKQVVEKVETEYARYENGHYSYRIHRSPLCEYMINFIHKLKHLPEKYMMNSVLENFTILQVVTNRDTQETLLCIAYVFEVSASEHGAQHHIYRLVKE
Protocol: Specifically, the GFP-TEAD4 vector and pcDNA3-HA (EV), pcDNA3-HA-VGLL1 (WT), pcDNA3-HA-VGLL1-S50A (S50A mutation), pcDNA3-HA-VGLL1-S84A (S84A mutation), and pcDNA3-HA-VGLL1-S124A (S124A mutation) were mixed with Turbofect. The mixture was transformed to the cell lines cultured for 24 hours. After 48 hours, the protein was extracted from the cells using a Ripa buffer. The extracted protein was subjected to immunoprecipitation using agarose bound with HA antibody and separated by electrophoresis. Thereafter, western blot analysis was performed using an antibody on the polyvinylidene fluoride membrane.

## YGRKKRRQRRR-PNQWRYSSPWAKPQP (YGRKKRRQRRRPNQWRYSSPWAKPQP; HIV TAT sequence linked; Tat-VGLL1(T87A)) [VGLL1 T87A]
[1]
  inhibition of cancer cell proliferation: excellent effect in inhibiting cancer cell proliferation

## 5′-CCACAACAUCACCUAUUGGAUdTdT-3′ [siMMP9]
[2]
  cell viability: greatly reduced cell viability
[3]
  cell invasiveness: greatly reduced cell invasiveness
[4]
  expression of MMP9: reduced expression of MMP9

## YGRKKRRQRRRPNQWRYSAPWTKPQP (HIV TAT domain linked; Tat-VGLL1(S84A)) [VGLL1 (S84A), reference compound]
[5]
  inhibition of cancer cell proliferation: did not have any effect
[6]
  inhibition of cancer cell invasion: did not exhibit such an effect
[7]
  increased MMP9 expression by TGF-β: not affected

## YGRKKRRQRRR-YSSPWTK (YGRKKRRQRRRYSSPWTK; HIV TAT sequence linked; Tat-VGLL1(S84-S)) [VGLL1 S84-S]
[1]
  inhibition of cancer cell proliferation: excellent effect in inhibiting cancer cell proliferation

## Transforming growth factor-β [TGF-β]
[8]
  expression of MMP9: increased

## 5′-GACACUACUCUUACCGCAUdTdT-3′ [siTEAD4]
[9]
  MMP9 promoter activity increased by TGF-β: decreased
[10]
  MMP9 mRNA expression increased by TGF-β: decreased

## YGRKKRRQRRR (HIV-1 Tat) [Control peptide]
[5]
  inhibition of cancer cell proliferation: did not have any effect

## 5′-AGCCUAUAAAGACGGAAUGGAAUdTdT-3′ (sense AGCCUAUAAAGACGGAAUGGAAUTT; sugars from the 5' end r23 d2, backbone not given here) [siVGLL1, siRNA against VGLL1]
[9]
  MMP9 promoter activity increased by TGF-β: decreased
[10]
  MMP9 mRNA expression increased by TGF-β: decreased

## YGRKKRRQRRR-PNQWRYSSAWTKPQP (YGRKKRRQRRRPNQWRYSSAWTKPQP; HIV TAT sequence linked; Tat-VGLL1(P85A)) [VGLL1 P85A]
[1]
  inhibition of cancer cell proliferation: excellent effect in inhibiting cancer cell proliferation

B1: HA-VGLL1-S84A, expressed from pcDNA3-HA-VGLL1-S84A (other)
chain: MEEMKKTAIRLPKGKQKPIKTEWNSRCVLFTYFQGDISSVVDEHFSRALSNIKSPQELTPSSQSEGVMLKNDDSMSPNQWRYSAPWTKPQPEVPVTNRAANCNLHVPGPMAVNQFSPSLARRASVRPGELWHFSSLAGTSSLEPGYSHPFPARHLVPEPQPDGKREPLLSLLQQDRCLARPQESAARENGNPGQIAGSTGLLFNLPPGSVHYKKLYVSRGSASTSLPNETLSELETPGKYSLTPPNHWGHPHRYLQHL
notes: Serine 84 of VGLL1 replaced with alanine by site-directed mutagenesis in the pcDNA3-HA-VGLL1 vector; also called S84A mutation; not shown: HA tag from the pcDNA3-HA vector
[11]
  binding result: no binding
